Measured values: patent EP4778920A1, “INDAZOLONE COMPOUND, PREPARATION METHOD THEREFOR, PHARMACEUTICAL COMPOSITION, AND USE” (Shanghai Institute of Materia Medica, Chinese Academy of …, priority 2023, dated 2025)
Like-named read-outs stand apart in the source and are kept apart here.

How the values were obtained:
Assay type in all cases: cell-based
MV-4-11 cells = experiment: MV-4-11 cell proliferation inhibition (MTS assay); settings: Homo sapiens
Description: MV-4-11 cells were cultured in IMDM medium supplemented with 10% fetal bovine serum and collected. The cell concentration was diluted according to a 7-day incubation period, and 180 µL of cell suspension was added to each well of a 96-well plate, resulting in 2,000 cells per well. […] The test compounds were prepared from a 10 mM stock solution and serially diluted in a five-fold gradient, and 20 µL of the diluted compound solution was added to each compound-treated well (final DMSO concentration 0.2%). The cells were incubated in a 37 °C, 5% CO2 incubator for 7 days. After incubation, the reaction solution was prepared according to the MTS assay kit instructions (Promega, G5430), and 20 µL was added to each well. The plate was further incubated at 37 °C with 5% CO2 for 3-4 hours. The absorbance at 490 nm was measured using a microplate reader, and the absorbance at 690 nm was used as the background value. The final raw data were calculated as OD490 - OD690. […] The IC50 values for cell proliferation inhibition were determined using GraphPad Prism 5.0. Each experiment was repeated three times, and three parallel replicates were performed in each experiment to calculate the mean value and standard deviation.
Table 3. Inhibitory Activity of Compounds on MV-4-11 Cell Proliferation

Mino cells = experiment: Mino cell proliferation inhibition (MTS assay); settings: Homo sapiens, 72 h, 3 days incubation, read-out: Mino (IC50, Inhibitory Activity of Compounds on Mino Cell Proliferation)
Description: The cell concentration was diluted according to a 3-day incubation period, and 90 µL of cell suspension was added to each well of a 96-well plate, resulting in 8,000 cells per well. […] The test compounds were prepared from a 10 mM stock solution and serially diluted in a five-fold gradient. Similarly, 10 µL of the diluted compound solution was added to each compound-treated well (final DMSO concentration 0.2%).
The cells were incubated in a 37 °C, 5% CO2 incubator for 3 days. After incubation, the reaction solution was prepared according to the MTS assay kit instructions (Promega, G5430), and 20 µL was added to each well. The plate was further incubated at 37 °C with 5% CO2 for 3-4 hours. The absorbance at 490 nm was measured using a microplate reader, and the absorbance at 690 nm was used as the background value. The final raw data were calculated as OD490 - OD690. […] The IC50 values for cell proliferation inhibition were determined using GraphPad Prism 5.0. Each experiment was repeated three times, and three parallel replicates were performed in each experiment to calculate the mean value and standard deviation.
Table 2. Inhibitory Activity of Compounds on Mino Cell Proliferation

MM.1S cells = experiment: MM.1S cell proliferation inhibition (MTS assay); settings: Homo sapiens, MM1.S, 168 h, 7 days incubation, read-out: MM1.S (IC50, Inhibitory Activity of Compounds on MM.1S Cell Proliferation)
Description: The cell concentration was diluted according to a 7-day incubation period, and 180 µL of cell suspension was added to each well of a 96-well plate, with 20,000 cells per well. […] The test compounds were prepared from a 10 mM stock solution and serially diluted in a 5-fold gradient, and 20 µL of the diluted solution was added to each compound-treated well (final DMSO concentration also 0.2%). The cells were incubated in a 37 °C, 5% CO2 incubator for 7 days. After incubation, the reaction solution was prepared according to the MTS assay kit instructions (Promega, G5430), and 20 µL was added to each well. The plate was incubated at 37 °C with 5% CO2 for 3-4 hours. The absorbance at 490 nm was measured using a microplate reader, and the absorbance at 690 nm was used as the background value. […] The IC50 values for cell proliferation inhibition were determined using GraphPad Prism 5.0. Each experiment was repeated three times, and three parallel replicates were performed in each experiment to calculate the mean value and standard deviation.
Inhibitory Activity of Compounds on MM.1S Cell Proliferation

[1] = MV4-11, reference compounds, read-out: cell growth inhibitory activity (IC50)
[2] = MV4-11, 168 h, 7 days incubation, MTS, read-out: MV-411 (IC50, Inhibitory Activity of Compounds on MV-4-11 Cell Proliferation)

IC50 (MV-4-11 cells; [1]) [nM]	IC50 (MV-4-11 cells; [2]) [nM]	IC50 (MM.1S cells) [nM]	SMILES	IC50 (Mino cells) [nM]
> 20000			O=C1CC[C@H](N2Cc3c(OCc4ccc(CN5CCOCC5)cc4)cccc3C2=O)C(=O)N1 [CC-220, reference compound]	
	200 to 1000	< 200	N#Cc1ccc(N2CCC(Sc3ccc(COc4cccc5c(=O)n([C@H]6CCC(=O)NC6=O)[nH]c45)cn3)CC2)c(F)c1 [Compound D3, (S)-4-(4-((5-(((2-(2,6-dioxopiperidin-3-yl)-3-oxo-2,3-dihydro-1H-indazol-7-yl)oxy)methyl)pyridin-2-yl)thio)piperidin-1-yl)-3-fluorobenzonitrile]	< 200
	< 200	< 200	O=C1CCC(n2[nH]c3c(OCc4ccc(CN5CCN(c6ccc(C(F)(F)F)cc6)CC5)cc4)cccc3c2=O)C(=O)N1 (centres unmarked) [Compound D11, 3-(3-Oxo-7-((4-((4-(4-(trifluoromethyl)phenyl)piperazin-1-yl)methyl)benzyl)oxy)-1,3-dihydro-2H-indazol-2-yl)piperidine-2,6-dione]	200 to 1000
	< 200	< 200	O=C1CCC(n2[nH]c3c(OCc4ccc(CN5CCN(c6ccc(Cl)cc6Cl)CC5)cc4)cccc3c2=O)C(=O)N1 (centres unmarked) [Compound D12, 3-(7-((4-((4-(2,4-dichlorophenyl)piperazin-1-yl)methyl)benzyl)oxy)-3-oxo-1,3-dihydro-2H-indazol-2-yl)piperidine-2,6-dione]	200 to 1000
	200 to 1000	< 200	O=C1CCC(n2[nH]c3c(OCc4ccc(CN5CC(N6CCOCC6)C5)cc4)cccc3c2=O)C(=O)N1 (centres unmarked) [Compound D13, 3-(7-((4-((3-morpholinoazetidin-1-yl)methyl)benzyl)oxy)-3-oxo-1,3-dihydro-2H-indazol-2-yl)piperidine-2,6-dione]	1000 to 10000
	< 200	< 200	O=C1CCC(n2[nH]c3c(OCc4ccc(CN5CCN(c6ccc(Cl)cc6Cl)CC5)cc4)cc(F)cc3c2=O)C(=O)N1 (centres unmarked) [Compound D16, 3-(7-((4-((4-(2,4-dichlorophenyl)piperazin-1-yl)methyl)benzyl)oxy)-5-fluoro-3-oxo-1,3-dihydro-2H-indazol-2-yl)piperidine-2,6-dione]	< 200
	< 200	< 200	O=C1CCC(n2[nH]c3c(OCc4ccc(CN5CCN(c6ccc(C(F)(F)F)cc6)CC5)cc4)cc(F)cc3c2=O)C(=O)N1 (centres unmarked) [Compound D17, 3-(5-Fluoro-3-oxo-7-((4-((4-(4-(trifluoromethyl)phenyl)piperazin-1-yl)methyl)benzyl)oxy)-1,3-dihydro-2H-indazol-2-yl)piperidine-2,6-dione]	< 200
	200 to 1000	< 200	O=C1CCC(n2[nH]c3c(OCc4ccc(CN5CC(N6CCOCC6)C5)cc4)cc(F)cc3c2=O)C(=O)N1 (centres unmarked) [Compound D20, 3-(5-Fluoro-7-((4-((3-morpholinoazetidin-1-yl)methyl)benzyl)oxy)-3-oxo-1,3-dihydro-2H-indazol-2-yl)piperidine-2,6-dione]	200 to 1000
	< 200	< 200	O=C1CCC(n2[nH]c3c(OCc4ccc(CN5CCN(c6ccc(Cl)cc6F)CC5)cc4)cc(F)cc3c2=O)C(=O)N1 (centres unmarked) [Compound D21, 3-(7-((4-((4-(4-chloro-2-fluorophenyl)piperazin-1-yl)methyl)benzyl)oxy)-5-fluoro-3-oxo-1,3-dihydro-2H-indazol-2-yl)piperidine-2,6-dione]	200 to 1000
	> 20000	< 200	Cn1c2c(OCc3ccc(CN4CCOCC4)cc3)cccc2c(=O)n1C1CCC(=O)NC1=O (centres unmarked) [Compound D22, 3-(1-Methyl-7-((4-(morpholinomethyl)benzyl)oxy)-3-oxo-1,3-dihydro-2H-indazol-2-yl)piperidine-2,6-dione]	> 10000
	> 20000	< 200	Cn1c2c(OCc3ccc(CN4CCN(c5ccc(C#N)cc5F)CC4)cc3)cccc2c(=O)n1C1CCC(=O)NC1=O (centres unmarked) [Compound D24, 4-(4-(4-(((2-(2,6-dioxopiperidin-3-yl)-1-methyl-3-oxo-2,3-dihydro-1H-indazol-7-yl)oxy)methyl)benzyl)piperazin-1-yl)-3-fluorobenzonitrile]	< 200
	1000 to 20000	1000 to 10000	O=C1CC[C@H](n2[nH]c3c(OCc4cnc(-c5ccc(OC(F)(F)F)cc5)o4)cccc3c2=O)C(=O)N1 [Compound D26, (S)-3-(3-Oxo-7-((2-(4-(trifluoromethoxy)phenyl)oxazol-5-yl)methoxy)-1,3-dihydro-2H-indazol-2-yl)piperidine-2,6-dione]	1000 to 10000
	> 20000	1000 to 10000	O=C1CC[C@H](n2[nH]c3c(OCc4cnc(-c5ccc(Cl)cc5)o4)cccc3c2=O)C(=O)N1 [Compound D27, (S)-3-(7-((2-(4-chlorophenyl)oxazol-5-yl)methoxy)-3-oxo-1,3-dihydro-2H-indazol-2-yl)piperidine-2,6-dione]	> 10000
	> 20000	1000 to 10000	COc1ccc(-c2ncc(COc3cccc4c(=O)n(C5CCC(=O)NC5=O)[nH]c34)o2)cc1 (centres unmarked) [Compound D28, 3-(7-((2-(4-methoxyphenyl)oxazol-5-yl)methoxy)-3-oxo-1,3-dihydro-2H-indazol-2-yl)piperidine-2,6-dione]	> 10000
	> 20000	> 10000	O=C1CCC(n2[nH]c3cc(C(=O)NCc4ccc(Cl)cc4)ccc3c2=O)C(=O)N1 (centres unmarked) [Compound D29, N-(4-chlorobenzyl)-2-(2,6-dioxopiperidin-3-yl)-3-oxo-2,3-dihydro-1H-indazole-6-carboxamide]	> 10000
	1000 to 20000	> 10000	C[C@H](NC(=O)c1ccc2c(=O)n(C3CCC(=O)NC3=O)[nH]c2c1)c1ccc(Cl)cc1 (stereo partly drawn) [Compound D30, N-((S)-1-(4-chlorophenyl)ethyl)-2-(2,6-dioxopiperidin-3-yl)-3-oxo-2,3-dihydro-1H-indazole-6-carboxamide]	1000 to 10000
	> 20000	> 10000	Cc1ccc([C@H](C)NC(=O)c2ccc3c(=O)n(C4CCC(=O)NC4=O)[nH]c3c2)cc1 (some centres unmarked) [Compound D31]	> 10000
	> 20000	> 10000	C[C@@H](NC(=O)c1ccc2c(=O)n(C3CCC(=O)NC3=O)[nH]c2c1)c1ccccc1 (stereo partly drawn) [Compound D32, 2-(2,6-dioxopiperidin-3-yl)-3-oxo-N-((R)-1-phenylethyl)-2,3-dihydro-1H-indazole-6-carboxamide]	> 10000
	> 20000	> 10000	C[C@H](NC(=O)c1ccc2c(=O)n(C3CCC(=O)NC3=O)[nH]c2c1)c1ccccc1 (stereo partly drawn) [Compound D33, 2-(2,6-dioxopiperidin-3-yl)-3-oxo-N-((S)-1-phenylethyl)-2,3-dihydro-1H-indazole-6-carboxamide]	> 10000
	> 20000	> 10000	C[C@@H](NC(=O)c1ccc2c(=O)n(C3CCC(=O)NC3=O)[nH]c2c1)c1ccc(Cl)cc1 (stereo partly drawn) [Compound D34, N-((R)-1-(4-chlorophenyl)ethyl)-2-(2,6-dioxopiperidin-3-yl)-3-oxo-2,3-dihydro-1H-indazole-6-carboxamide]	> 10000
	> 20000	> 10000	O=C1CCC(n2[nH]c3cc(C(=O)N[C@@H](c4ccccc4)C(F)(F)F)ccc3c2=O)C(=O)N1 (stereo partly drawn) [Compound D35, 2-(2,6-dioxopiperidin-3-yl)-3-oxo-N-((S)-2,2,2-trifluoro-1-phenylethyl)-2,3-dihydro-1H-indazole-6-carboxamide]	> 10000
> 20000			Nc1cccc2c1C(=O)N(C1CCC(=O)NC1=O)C2=O (centres unmarked) [pomalidomide, reference compound]	
